≈ marks a conversion by molar mass, not a printed value.

For one data set, the system named is DU-145. Description: Antiproliferative activity against human DU-145 cells assessed as cell growth inhibition by MTT assay. The format is functional, cell-based. On the technique in general: Tetrazolium dyes change colour on reduction, which living cells bring about.
The subject of the next data set is A549. Briefly: Antiproliferative activity against human A549 cells assessed as cell growth inhibition measured after 96 hrs by MTT assay. The format is functional, cell-based. To be noted: A549, 96 h.
The next data set deals with CH1. Briefly: Antiproliferative activity against human CH1 cells assessed as cell growth inhibition measured after 96 hrs by MTT assay. It is filed as functional, cell-based. To be noted: CH1, 96 h.
Data set [1] concerns SW480. Description: Antiproliferative activity against human SW480 cells assessed as cell growth inhibition measured after 96 hrs by MTT assay. It is filed as functional, cell-based. To be noted: SW480, 96 h.
Data set [2] is described as follows: Inhibition of GST-tagged recombinant human CDK2/cyclin E expressed in Sf9 cells incubated for 10 mins in presence of [33P]-gamma ATP and ATP by scintillation counter method.
For data set [3], the system named is MCF7. Briefly: Cytotoxicity against human MCF7 cells assessed as cell growth inhibition measured after 4 days by crystal violet staining based assay. The format is functional. The following applies: MCF7, 96 h.
The nature of data set [4]: Kinetic solubility of compound in PBS at pH 7.4. To be noted: read-out: Kinetic_solubility. It is filed as physicochemical.
The next data set addresses CDK2/Cyclin A2 (Homo sapiens, UniProt P24941). Briefly: Inhibition of CDK2/cyclin A (unknown origin). The format is protein-complex assay.
The test system of data set [5] is HepG2. Briefly: Antiproliferative activity against human HepG2 cells assessed as cell growth inhibition measured after 72 hrs by MTT assay. The format is functional, cell-based. To be noted: HepG2, 72 h.
The nature of data set [6]: Antiproliferative activity against human Lu1 cells assessed as cell growth inhibition measured after 72 hrs by MTT assay. To be noted: Lu1, 72 h. It is filed as functional, cell-based.
For data set [7], the system named is SW480. Description: Antiproliferative activity against human SW480 cells assessed as cell growth inhibition measured after 72 hrs by MTT assay. The format is functional, cell-based. To be noted: SW480, 72 h.
Data set [8] has as its system HL-60. Description: Antiproliferative activity against human HL-60 cells assessed as cell growth inhibition measured after 72 hrs by MTT assay. It is filed as functional, cell-based. To be noted: HL-60, 72 h.
Data set [9] deals with SW480. Briefly: Antiproliferative activity against human SW480 cells assessed as cell growth inhibition. It is filed as functional, cell-based.
The nature of data set [10]: Antiproliferative activity against human Lu1 cells assessed as cell growth inhibition. The format is functional, cell-based.
In data set [11] the test system is HepG2. Description: Antiproliferative activity against human HepG2 cells assessed as cell growth inhibition. It is filed as functional, cell-based.
For data set [12], the system named is HL-60. Description: Antiproliferative activity against human HL-60 cells assessed as cell growth inhibition. The format is functional, cell-based.
The target in data set [13] is Indoleamine 2,3-dioxygenase 1 (Homo sapiens, UniProt P14902). Description: Inhibition of IDO1 in human Hela cells assessed as reduction in N-formylkynurenine formation incubated for 30 mins. The format is cell-based.
Chain of Indoleamine 2,3-dioxygenase 1 (P14902 whole entry): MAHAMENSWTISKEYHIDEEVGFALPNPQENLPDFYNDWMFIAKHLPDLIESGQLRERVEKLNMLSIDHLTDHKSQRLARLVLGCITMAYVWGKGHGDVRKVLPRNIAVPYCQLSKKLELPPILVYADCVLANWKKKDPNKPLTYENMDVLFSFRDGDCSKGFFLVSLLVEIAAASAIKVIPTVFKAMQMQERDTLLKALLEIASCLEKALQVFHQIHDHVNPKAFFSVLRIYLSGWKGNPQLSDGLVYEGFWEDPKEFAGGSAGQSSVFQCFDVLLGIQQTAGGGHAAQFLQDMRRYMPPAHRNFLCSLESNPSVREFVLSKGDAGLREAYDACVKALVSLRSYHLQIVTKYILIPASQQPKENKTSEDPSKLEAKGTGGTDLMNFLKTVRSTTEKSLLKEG
The subject of another data set is K562. Description: Antiproliferative activity against human K562 cells assessed as cell growth inhibition measured after 48 hrs by CCK-8 assay. The format is functional, cell-based. To be noted: K562, 48 h.
In another data set the test system is NCI-H157. Briefly: Cytotoxicity against human NCI-H157 cells assessed as cell growth inhibition at 100 uM by calcein-AM staining based flow cytometry analysis relative to control. It is filed as functional. Set-up: scale not given: the % may be the effect or the level left.
Another data set has as its system SK-MEL19. Briefly: Cytotoxicity against human SK-MEL19 cells assessed as cell growth inhibition measured after 24 hrs by WST-1 assay. To be noted: SK-MEL19, 24 h. It is filed as functional, cell-based.
Data set [14] in a line: Cytotoxicity against human SK-MEL-29 cells assessed as cell growth inhibition measured after 24 hrs by WST-1 assay. It is filed as functional, cell-based. The following applies: SK-MEL-29, 24 h.
A further data set has as its system SK-MEL-103. Description: Cytotoxicity against human SK-MEL-103 cells assessed as cell growth inhibition measured after 24 hrs by WST-1 assay. To be noted: SK-MEL-103, 24 h. The format is functional, cell-based.
The test system of another data set is SK-MEL-147. Description: Cytotoxicity against human SK-MEL-147 cells assessed as cell growth inhibition measured after 24 hrs by WST-1 assay. It is filed as functional, cell-based. The following applies: SK-MEL-147, 24 h.
In data set [15] the test system is HL-60. Description: Cytotoxicity against human HL-60 cells assessed as cell growth inhibition. The format is functional, cell-based.
Data set [16] deals with MCF7. Briefly: Cytotoxicity against human MCF7 cells assessed as cell growth inhibition. It is filed as functional, cell-based.

One may read the IC50 as the concentration at which inhibition is half-maximal. As to `CN1C(=O)/C(=C2\Nc3ccc(Cl)cc3C2=O)c2cccnc21`, in the data set with DU-145, the IC50 was 8 µM.

Regarding `NCCO/N=C1/C(=C2/C(=O)Nc3ccc(Br)cc32)Nc2ccc(O)cc21`, the IC50 came to 1 µM with A549, 0.28 µM in the data set on CH1 and 0.52 µM in the data set on SW480 [1].

Regarding `CN(C)CCN(C)S(=O)(=O)c1ccc2c(c1)/C(=C1/Nc3ccccc3C1(C)O)C(=O)N2` (stereo unspecified), the figures for the IC50 (in data set [2]; in the data set with MCF7 [3]) were 0.07 µM and below 0.1 µM, respectively. In data set [4], the solubility kinetic was above 40 µg/mL.

For the compound `CN(C)S(=O)(=O)c1ccc2c(c1)/C(=C1/Nc3ccccc3C1(C)O)C(=O)N2` (stereo unspecified), the IC50 in data set [2] is 0.07 µM; in the data set on MCF7 [3], 0.7 µM. Also, the solubility kinetic in data set [4] is above 40 µg/mL.

The compound `CC(C)N1C(=O)/C(=C2\Nc3ccccc3C2=O)c2cccnc21` registered an IC50 against CDK2/Cyclin A2 of 9.5 µM.

As to `CCOc1ccccc1/C=C/C(=O)c1ccc(OCCn2cc(CN3C(=O)/C(=C4\Nc5ccccc5\C4=N/O)c4ccccc43)nn2)cc1O`, the IC50 in the data set with HepG2 [5] came to 2.01 µM; in data set [6], 1.3 µM; in the data set on SW480 [7], 2.54 µM; in the data set with HL-60 [8], 0.98 µM.

With `CC(=O)O[C@H](CN)CC(=O)O/N=C1/C(=C2/C(=O)Nc3ccccc32)Nc2ccc(O)cc21`, the results for the IC50 in the data set on A549, in the data set on CH1 and with SW480 [1] were 7.6 µM, 1.8 µM and 5.6 µM, respectively.

Turning to `Cc1ccc(Nc2nnc(SCC(O)CN3C(=O)/C(=C4\Nc5ccccc5C4=O)c4ccccc43)s2)c(C)c1` (stereo unspecified), the IC50 worked out at 4.19 µM in the data set on SW480 [9], 4.53 µM in data set [10], 4.47 µM in the data set on HepG2 [11] and 4.28 µM in the data set with HL-60 [12].

Regarding `O=C1CCC(N2C(=O)c3cccc(-n4cc(COCCOCCOCCN5C(=O)/C(=C6\Nc7ccccc7C6=O)c6ccccc65)nn4)c3C2=O)C(=O)N1` (stereo unspecified), the IC50 came to 33.9 µM in [13] and 42.2 µM in the data set on K562.

Consider `CCN1C(=O)/C(=C2\Nc3ccccc3C2=O)c2cccnc21`, for which the IC50 at CDK2/Cyclin A2 is 1.2 µM; with DU-145 it was 40 µM.

On to `CCCOc1ccccc1/C=C/C(=O)c1ccc(OCCn2cc(CN3C(=O)/C(=C4\Nc5ccccc5\C4=N/O)c4ccccc43)nn2)cc1O`, for which the half-inhibitory concentration (IC50) in the data set on HepG2 [5] was 2.28 µM; in data set [6], 2.07 µM; in the data set with SW480 [7] it was 3.43 µM; in the data set on HL-60 [8], 1.28 µM.

With `O=C1Nc2ccc(OC(F)(F)F)cc2/C1=C1/[Se]c2ccccc2C1=O`, the Activity in the data set with NCI-H157 is recorded as 17.4%.

As for `C=CCC1(O)/C(=C2/C(=O)Nc3ccc(S(=O)(=O)N(C)C)cc32)Nc2ccccc21` (stereo unspecified), the values for the half-inhibitory concentration (IC50) (in data set [2]; in the data set on MCF7 [3]) were 0.09 µM and 0.2 µM, respectively. For the same compound, the solubility kinetic in [4] came out at 31 µg/mL (≈ 75.3 µM).

Consider `CCN1C(=O)/C(=C2\Nc3ccccc3\C2=N/O)c2cccnc21`, for which the IC50 in the data set with DU-145 was determined as 8 µM.

As to `C[C@@H]1O[C@H](N2C(=O)/C(=C3\Sc4ccccc4C3=O)c3ccccc32)[C@H](O)[C@H](O)[C@H]1O`, the IC50 was 12 µM in the data set with SK-MEL19, 6.29 µM in data set [14], 10.4 µM in the data set on SK-MEL-103 and 7.52 µM in the data set with SK-MEL-147.

With `O=C1/C(=C2/C(=O)N([C@H]3O[C@H](CO)[C@@H](O)[C@H](O)[C@@H]3O)c3ccccc32)Sc2ccccc21`, the IC50 in the data set on SK-MEL19 turned out to be 5.81 µM; in data set [14], 3.96 µM; in the data set on SK-MEL-103, 6.69 µM; in the data set with SK-MEL-147 it was 4.28 µM.

Regarding `O=C1/C(=C2/C(=O)N(CCN3CCCC3)c3ccccc32)Nc2ccccc21`, the IC50 with HL-60 [15] came out at 3.56 µM.

Take `O=C1/C(=C2/C(=O)N([C@H]3O[C@H](CO)[C@@H](O)[C@H](O)[C@@H]3O)c3ccccc32)[Se]c2ccccc21`: the Activity with NCI-H157 is 21.5%.

Regarding `C=CCC1(O)/C(=C2/C(=O)Nc3ccc(S(=O)(=O)N(C)CCN(C)C)cc32)Nc2ccccc21` (stereo unspecified), the IC50 in data set [2] is 0.04 µM; in the data set with MCF7 [3], below 0.1 µM. Further, in data set [4], the solubility kinetic was above 40 µg/mL.

In the case of `Cc1cn(C2CC(n3cc(COCCOCCOCCN4C(=O)/C(=C5\Nc6ccccc6C5=O)c5ccccc54)nn3)C(CO)O2)c(=O)[nH]c1=O` (stereo unspecified), the figures for the IC50 (in [13]; in the data set on K562) were 54.7 µM and 34.2 µM, respectively.

With `C[C@@H]1O[C@@H](N2C(=O)/C(=C3\Nc4ccccc4C3=O)c3ccccc32)[C@H](O)[C@H](O)[C@H]1O`, in the data set on MCF7 [16], the IC50 came to 0.76 µM.

The values are drawn from ChEMBL document CHEMBL5149994, “Anticancer potential of indirubins in medicinal chemistry: Biological activity, structural modification, and structure-activity relationship” (Eur J Med Chem, 2021).
